Among the data in patent publication US20230022724A1, “NOVEL IMIDAZOPYRAZINE DERIVATIVES” (Hoffmann-La Roche Inc., priority 2018, published 2023) are IC90 values, retold here.

Structures are written as SMILES. Where a name gives a salt, the structure may show the parent alone.

One assay concerns Acinetobacter baumannii ATCC17978. The experiment in a line: Antimicrobial susceptibility testing: 90% growth inhibitory concentration (IC90) determination. It counts as cell-based. To be noted: 90% growth inhibitory concentration, Acinetobacter baumannii ATCC17978, Iso-Sensitest broth, OD 600 nm over 16 h; formate salt; read-out: ATCC17978 IC90. How it is done: The in vitro antimicrobial activity of the compounds was determined according to the following procedure:
The assay used a 10-points Iso-Sensitest broth medium to measure quantitatively the in vitro activity of the compounds against Acinetobacter baumannii ATCC17978 and Acinetobacter baumannii ATCC17961.
Stock compounds in DMSO were serially twofold diluted (e.g. range from 50 to 0.097 μM final concentration) in 384 wells microtiter plates and inoculated with 49 μl the bacterial suspension in Iso-Sensitest medium to have a final cell concentration of ˜5×10^(5) CFU/ml in a final volume/well of 50 ul/well. Microtiter plates were incubated at 35±2° C.
Bacterial cell growth was determined with the measurement of optical density at λ=600 nm each 20 minutes over a time course of 16 h. Growth inhibition was calculated during the logarithmic growth of the bacterial cells with determination of the concentration inhibiting 50% (IC50) and 90% (IC90) of the growth.
Table 1 provides the 90% growth inhibitory concentrations (IC90) in micromoles per liter of the compounds of present invention obtained against the strain Acinetobacter baumannii ATCC17978 and Acinetobacter baumannii ATCC17961.
Turning to `COc1ccc(-c2cnc3c(Nc4ccc(C(=O)N5CCC(C(=O)N6CCNC(C(=O)O)C6)CC5)c(Cl)c4)nccn23)cc1F` (stereo not drawn) [Example 2, 4-(1-(2-chloro-4-((3-(3-fluoro-4-methoxyphenyl)imidazo [1,2-a]pyrazin-8-yl)amino)benzoyl)piperidine-4-carbonyl) piperazine-2-carboxylic acid, formate salt], the IC90 was 470 nM.

Staying with this assay, now noted: 90% growth inhibitory concentration, Acinetobacter baumannii ATCC17978, Iso-Sensitest broth, OD 600 nm over 16 h; hydrochloride; read-out: ATCC17978 IC90.
As to `COc1ccc(-c2cnc3c(Nc4ccc(C(=O)N5CCC(C(=O)NCC6CNC6)CC5)c(Cl)c4)nccn23)cc1F` [Example 54, N-(azetidin-3-ylmethyl)-1-[2-chloro-4-[[3-(3-fluoro-4-methoxyphenyl)imidazo[1,2-a]pyrazin-8-yl]amino]benzoyl]piperidine-4-carboxamide;hydrochloride], the IC90 worked out at 130 nM.

Still in this assay, the particulars now being: 90% growth inhibitory concentration, Acinetobacter baumannii ATCC17978, Iso-Sensitest broth, OD 600 nm over 16 h; read-out: ATCC17978 IC90.
On to `COc1ccc(-c2cnc3c(Nc4ccc(C(=O)N5CCC(C(=O)N6CCNC(C(=O)O)C6)CC5)c(Cl)c4)nccn23)cc1F` (stereo not drawn) [Example 59, 4-[1-[2-chloro-4-[[3-(3-fluoro-4-methoxyphenyl)imidazo[1,2-a]pyrazin-8-yl]amino]benzoyl]piperidine-4-carbonyl]piperazine-2-carboxylic acid], for which the IC90 was determined as 1200 nM. Same read-out and setting: next, `N#CCOc1ccc(-c2cnc3c(Nc4ccc(C(=O)N5CCC(C(=O)OCC6CNCCN6)CC5)c(Cl)c4)nccn23)c(F)c1F` (stereo not drawn) [Example 83, piperazin-2-ylmethyl 1-[2-chloro-4-[[3-[4-(cyanomethoxy)-2,3-difluorophenyl]imidazo[1,2-a]pyrazin-8-yl]amino]benzoyl]piperidine-4-carboxylate;2,2,2-trifluoroacetic acid]: 140 nM.

The same assay, now with this note: Acinetobacter baumannii, ATCC17978, 16 h, 90% growth inhibitory concentration, Acinetobacter baumannii ATCC17978, Iso-Sensitest broth, OD 600 nm over 16 h; read-out: ATCC17978 IC90.
Take `COc1ccc(-c2cnc3c(Nc4ccc(C(=O)N5CCC(C(=O)NC[C@H](O)[C@@H](O)[C@H](O)[C@H](O)CO)CC5)c(Cl)c4)nccn23)cc1F` [Example 107, 1-(2-chloro-4-((3-(3-fluoro-4-methoxyphenyl)imidazo[1,2-a]pyrazin-8-yl)amino)benzoyl)-N-((2S,3R,4R,5R)-2,3,4,5,6-pentahydroxyhexyl)piperidine-4-carboxamide]: the IC90 is 260 nM. The same measure, in the same setting: next, `N#CCOc1ccc(-c2cnc3c(Nc4ccc(C(=O)N5CCN(c6ncccn6)CC5)c(Cl)c4)nccn23)c(F)c1F` [Example 22, 2-[4-[8-[3-chloro-4-(4-pyrimidin-2-ylpiperazine-1-carbonyl)anilino]imidazo[1,2-a]pyrazin-3-yl]-2,3-difluoro-phenoxy]acetonitrile]: 690 nM; `COc1ccc(-c2cnc3c(Nc4ccc(C(=O)N5CCN(CCNCCO)CC5)c(Cl)c4)nccn23)cc1F` [Example 43, (2-Chloro-4-((3-(3-fluoro-4-methoxyphenyl)imidazo[1,2-a]pyrazin-8-yl)amino)phenyl)(4-(2-((2-hydroxyethyl)amino)ethyl)piperazin-1-yl)methanone]: 140 nM; `N#CCOc1ccc(-c2cnc3c(Nc4ccc(C(=O)N5CCN(CCN6CCCC6)CC5)c(Cl)c4)nccn23)c(Cl)c1F` [Example 26]: 86 nM.

As for `COc1ccc(-c2cnc3c(Nc4ccc(C(=O)N5CCN(C)CC5)cc4)nccn23)cc1Cl` [Example 74, [4-[[3-(3-chloro-4-methoxyphenyl)imidazo[1,2-a]pyrazin-8-yl]amino]phenyl]-(4-methylpiperazin-1-yl)methanone], the IC90 amounted to 2700 nM. Same read-out and setting: next, `COc1ccc(-c2cnc3c(Nc4ccc(C(=O)N5CCN(CCO)CC5)cc4)nccn23)cc1` [Example 63, [4-(2-hydroxyethyl)piperazin-1-yl]-[4-[[3-(4-methoxyphenyl)imidazo[1,2-a]pyrazin-8-yl]amino]phenyl]methanone]: 1100 nM. The same measure, in the same setting: to `COc1ccc(-c2cnc3c(Nc4ccc(C(=O)N5CCC(O)CC5)cc4)nccn23)cc1Cl` [Example 62, [4-[[3-(3-chloro-4-methoxyphenyl)imidazo[1,2-a]pyrazin-8-yl]amino]phenyl]-(4-hydroxypiperidin-1-yl)methanone] belongs 900 nM. As for `COc1ccc(-c2cnc3c(Nc4ccc(C(=O)N5CCC(O)(CC(=O)N(C)C)CC5)c(Cl)c4)nccn23)cc1F` [Example 106, 2-(1-(2-chloro-4-((3-(3-fluoro-4-methoxyphenyl)imidazo[1,2-a]pyrazin-8-yl)amino)benzoyl)-4-hydroxypiperidin-4-yl)-N,N-dimethylacetamide], the IC90 amounted to 540 nM. As to `COc1ccc(-c2cnc3c(Nc4ccc(C(=O)N5CCC(CN)CC5)c(Cl)c4)nccn23)c(F)c1F` [Example 8, (4-(aminomethyl)piperidin-1-yl)(2-chloro-4-((3-(2,3-difluoro-4-methoxyphenyl)imidazo[1,2-a]pyrazin-8-yl)amino)phenyl)methanone], the IC90 was determined as 170 nM. Still for that read-out and setting: to `N#CCOc1ccc(-c2cnc3c(Nc4ccc(C(=O)N5CCN(CCN6CCC[C@H]6C(=O)O)CC5)c(Cl)c4)nccn23)c(F)c1F` [Example 104, (2-(4-(2-chloro-4-((3-(4-(cyanomethoxy)-2,3-difluorophenyl)imidazo[1,2-a]pyrazin-8-yl)amino)benzoyl)piperazin-1-yl)ethyl)proline trifluoroacetate] belongs 630 nM; to `COc1ccc(-c2cnc3c(Nc4ccc(C(=O)N5CCN(CCN(C)C)CC5)c(Br)c4)nccn23)cc1F` [Example 81, [2-bromo-4-[[3-(3-fluoro-4-methoxyphenyl)imidazo[1,2-a]pyrazin-8-yl]amino]phenyl]-[4-[2-(dimethylamino)ethyl]piperazin-1-yl]methanone;formic acid], 290 nM. Consider `CN(C)CCNC1CCN(C(=O)c2ccc(Nc3nccn4c(-c5ccc(OCC#N)c(F)c5Cl)cnc34)cc2Cl)CC1` [Example 25, 2-[3-chloro-4-[8-[3-chloro-4-[4-[2-(dimethylamino)ethylamino]piperidine-1-carbonyl]anilino]imidazo[1,2-a]pyrazin-3-yl]-2-fluorophenoxy]acetonitrile; 2,2,2-trifluoroacetic acid], for which the IC90 amounted to 79 nM.

As to `CN(C)CCN1CCN(C(=O)c2ccc(Nc3nccn4c(-c5ccc(OCC#N)c(F)c5F)cnc34)cc2Br)CC1` [Example 78, 2-[4-[8-[3-bromo-4-[4-[2-(dimethylamino)ethyl]piperazine-1-carbonyl]anilino]imidazo[1,2-a]pyrazin-3-yl]-2,3-difluorophenoxy]acetonitrile; formic acid], the IC90 amounted to 280 nM. As to `COc1ccc(-c2cnc3c(Nc4ccc(C(=O)N5CCNC(C(=O)O)C5)c(Cl)c4)nccn23)c(F)c1F` (stereo not drawn) [Example 1, 4-(2-chloro-4-((3-(2,3-difluoro-4-methoxyphenyl)imidazo[1,2-a]pyrazin-8-yl)amino)benzoyl)piperazine-2-carboxylic Acid], the IC90 is 1900 nM. As to `CNCCNC(=O)C1CCN(C(=O)c2ccc(Nc3nccn4c(-c5ccc(OCC#N)c(F)c5F)cnc34)cc2Cl)CC1` [Example 32, 1-[2-chloro-4-[[3-[4-(cyanomethoxy)-2,3-difluoro-phenyl]imidazo[1,2-a]pyrazin-8-yl]amino]benzoyl]-N-[2-(methylamino)ethyl]piperidine-4-carboxamide trifluoroacetate], the IC90 was determined as 300 nM. On the same count and under the same terms, next, `COc1ccc(-c2cnc3c(Nc4ccc(C(=O)N5CCN(CCN(C)C)CC5)c(Cl)c4)nccn23)c(Cl)c1F` [Example 68, [2-chloro-4-[[3-(2-chloro-3-fluoro-4-methoxyphenyl)imidazo[1,2-a]pyrazin-8-yl]amino]phenyl]-[4-[2-(dimethylamino)ethyl]piperazin-1-yl]methanone]: 110 nM; `N#CCOc1ccc(-c2cnc3c(Nc4ccc(C(=O)N5CCC(c6nnn[nH]6)CC5)c(Cl)c4)nccn23)c(F)c1F` [Example 13, 2-[4-[8-[3-chloro-4-[4-(1H-tetrazol-5-yl)piperidine-1-carbonyl]anilino]imidazo[1,2-a]pyrazin-3-yl]-2,3-difluoro-phenoxy]acetonitrile;2,2,2-trifluoroacetic acid]: 280 nM; `CNCC(=O)N1CCN(C(=O)c2ccc(Nc3nccn4c(-c5ccc(OCC#N)c(F)c5F)cnc34)cc2Cl)CC1` [Example 77, 2-[4-[8-[3-chloro-4-[4-[2-(methylamino)acetyl]piperazine-1-carbonyl]anilino]imidazo[1,2-a]pyrazin-3-yl]-2,3-difluorophenoxy]acetonitrile]: 73 nM.

The same assay, now with this note: Acinetobacter baumannii, ATCC17978, 16 h, read-out: ATCC17978 IC90.
Consider `CNCCNC(=O)C1CCN(C(=O)c2ccc(Nc3nccn4c(-c5ccc(OC)c(F)c5)cnc34)cc2Cl)CC1` [Example 16, 1-(2-chloro-4-((3-(3-fluoro-4-methoxyphenyl)imidazo[1,2-a]pyrazin-8-yl)amino)benzoyl)-N-(2-(methylamino)ethyl)piperidine-4-carboxamide hydrochloride], for which the IC90 came to 100 nM. For `N#CCOc1ccc(-c2cnc3c(Nc4ccc(C(=O)N5CCC(C(=O)N6CCN[C@@H](CO)C6)CC5)c(Cl)c4)nccn23)c(Cl)c1F` [Example 86, 2-[3-chloro-4-[8-[3-chloro-4-[4-[(3R)-3-(hydroxymethyl)piperazine-1-carbonyl]piperidine-1-carbonyl]anilino]imidazo[1,2-a]pyrazin-3-yl]-2-fluorophenoxy]acetonitrile; formic acid], the IC90 was 49 nM.

A word on the IC90: it is the concentration at which the effect reaches the 90% level.
